Measured values: paper PMC3730168, “Thiol Redox Sensitivity of Two Key Enzymes of Heme Biosynthesis and Pentose Phosphate Pathways: Uroporphyrinogen Decarboxylase and Transketolase” (Oxidative Medicine and Cellular Longevity, 2013)

Tests used:
Hem12p = target: T1, Hem12p (Saccharomyces cerevisiae, UniProt P32347); assay: fluorescent labelling with eosin-GSH, eosin absorbance at […] nm; format: binding; conditions: covalent; labelled compound; excess DiEGSSG
T1 construct: gene HEM12; recombinant, codon-optimised synthetic DNA, C-terminal poly-His tag, E. coli, Ni-Sepharose (Abyntek Biopharma)
T1 sequence (P32347 1-362): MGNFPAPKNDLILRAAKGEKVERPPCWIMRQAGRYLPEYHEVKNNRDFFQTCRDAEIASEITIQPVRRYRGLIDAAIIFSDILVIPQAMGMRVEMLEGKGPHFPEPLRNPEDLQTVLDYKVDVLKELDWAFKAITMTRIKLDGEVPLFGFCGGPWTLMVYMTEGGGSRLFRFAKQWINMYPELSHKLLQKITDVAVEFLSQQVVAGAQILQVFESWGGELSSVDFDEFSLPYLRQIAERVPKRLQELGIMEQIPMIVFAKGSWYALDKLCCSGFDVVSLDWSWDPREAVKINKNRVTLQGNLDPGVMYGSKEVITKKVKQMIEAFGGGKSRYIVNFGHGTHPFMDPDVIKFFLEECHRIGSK

Tkl1p = target: T2, Tkl1p (Saccharomyces cerevisiae, UniProt P23254); assay: as above; format: binding; conditions: covalent; labelled compound; excess DiEGSSG
T2 construct: gene TKL1; recombinant, codon-optimised synthetic DNA, C-terminal poly-His tag, E. coli, Ni-Sepharose (Abyntek Biopharma); homodimer
T2 sequence (P23254 1-680): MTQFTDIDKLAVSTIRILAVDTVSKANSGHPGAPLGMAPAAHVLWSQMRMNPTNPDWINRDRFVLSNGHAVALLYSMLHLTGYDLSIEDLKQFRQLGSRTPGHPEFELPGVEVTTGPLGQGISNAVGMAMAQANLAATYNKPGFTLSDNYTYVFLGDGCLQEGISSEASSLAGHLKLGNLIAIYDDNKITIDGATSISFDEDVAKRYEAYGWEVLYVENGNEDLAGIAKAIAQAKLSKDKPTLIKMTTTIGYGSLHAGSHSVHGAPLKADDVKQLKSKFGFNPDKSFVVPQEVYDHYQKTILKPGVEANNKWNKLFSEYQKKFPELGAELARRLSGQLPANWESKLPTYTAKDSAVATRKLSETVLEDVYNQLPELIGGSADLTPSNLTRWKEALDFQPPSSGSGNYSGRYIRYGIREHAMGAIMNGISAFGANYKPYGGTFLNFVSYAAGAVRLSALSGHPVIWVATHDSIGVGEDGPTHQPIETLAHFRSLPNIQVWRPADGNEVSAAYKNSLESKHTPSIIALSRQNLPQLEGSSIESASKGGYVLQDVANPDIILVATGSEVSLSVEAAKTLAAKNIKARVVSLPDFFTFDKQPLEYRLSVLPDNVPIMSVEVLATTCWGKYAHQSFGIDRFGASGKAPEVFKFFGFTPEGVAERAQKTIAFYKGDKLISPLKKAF

Structure (SMILES): O=C(O)CNC(=O)[C@H](CSSC[C@H](NC(=O)CC[C@H](NC(=S)Nc1ccc(-c2c3cc(Br)c(=O)c(Br)c-3oc3c(Br)c(O)c(Br)cc23)c(C(=O)O)c1)C(=O)O)C(=O)NCC(=O)O)NC(=O)CC[C@H](NC(=S)Nc1ccc(-c2c3cc(Br)c(=O)c(Br)c-3oc3c(Br)c(O)c(Br)cc23)c(C(=O)O)c1)C(=O)O [DiEGSSG, dieosinediglutathione]
- moles of fluorescent glutathione per mole protein (Hem12p): ~ 1.5 mol/mol
- moles of fluorescent moiety per mole protein (Tkl1p): ~ 0.35 mol/mol
